Tests used:
Test in all cases: relative viability (nuclei count vs DMSO), 5 days (fraction); higher = more cells survive
[1] = compound: CCCS(=O)(=O)Nc1ccc(F)c(C(=O)c2c[nH]c3ncc(-c4ccc(Cl)cc4)cc23)c1F [Vemurafenib] + CCNC(=O)c1noc(-c2cc(C(C)C)c(O)cc2O)c1-c1ccc(CN2CCOCC2)cc1 [Luminespib] (partner 0.01 µM)
How it was run: (§1)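 Dosing by pin tool came one day after lung cancer cell lines were seeded in 1536-well plates, using either one drug or a fixed anchor-drug dose plus five library-drug doses (not always all listed) in √10 steps. After 5 days, nuclei were counted on 4× images. Relative viability is treated-well nuclei count divided by vehicle-well nuclei count, and values are medians of duplicate plates.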

[2] = compound: CCCS(=O)(=O)Nc1ccc(F)c(C(=O)c2c[nH]c3ncc(-c4ccc(Cl)cc4)cc23)c1F [Vemurafenib] + Cc1nc(NC(=O)N2CCC[C@H]2C(N)=O)sc1-c1ccnc(C(C)(C)C(F)(F)F)c1 [Alpelisib] (partner 2 µM)
How it was run: as §1

[3] = compound: CCCS(=O)(=O)Nc1ccc(F)c(C(=O)c2c[nH]c3ncc(-c4ccc(Cl)cc4)cc23)c1F [Vemurafenib] + Nc1nc2[nH]cc(CCc3ccc(C(=O)N[C@@H](CCC(=O)O)C(=O)O)cc3)c2c(=O)[nH]1 [Pemetrexed] (partner 0.2 µM)
How it was run: as §1

[4] = compound: Cc1nc(NC(=O)N2CCC[C@H]2C(N)=O)sc1-c1ccnc(C(C)(C)C(F)(F)F)c1 [Alpelisib] + Nc1ncn([C@H]2C[C@H](O)[C@@H](CO)O2)c(=O)n1 [Decitabine] (partner 2 µM)
How it was run: as §1

Row | Cell Line | relative viability ([1]; first compound 0.03162 µM) | relative viability ([1]; first compound 0.1 µM) | relative viability ([1]; first compound 0.3162 µM) | relative viability ([1]; first compound 1 µM) | relative viability ([2]; first compound 0.03162 µM) | relative viability ([2]; first compound 0.1 µM) | relative viability ([2]; first compound 0.3162 µM) | relative viability ([2]; first compound 1 µM) | relative viability ([3]; first compound 0.03162 µM) | relative viability ([3]; first compound 0.1 µM) | relative viability ([3]; first compound 0.3162 µM) | relative viability ([3]; first compound 1 µM) | relative viability ([4]; first compound 0.04 µM) | relative viability ([4]; first compound 0.1265 µM) | relative viability ([4]; first compound 0.4 µM) | relative viability ([4]; first compound 1.265 µM) | relative viability ([4]; first compound 4 µM)
1 | 201T | 1.01 | 1.05 | 1.14 | 1.03 | 0.974 | 0.96 | 1.05 | 0.981 | 0.375 | 0.378 | 0.322 | 0.283 | 0.85 | 0.78 | 0.88 | 0.772 | 0.628
2 | A549 |  |  |  |  | 0.568 | 0.713 | 0.772 | 0.867 |  |  |  |  | 0.197 | 0.294 | 0.322 | 0.25 | 0.229
3 | A-427 | 0.846 | 0.919 | 0.627 | 0.87 | 1.02 | 1.09 | 1.11 | 1.14 | 0.866 | 0.918 |  | 1.1 | 0.518 | 0.483 | 0.574 | 0.461 | 0.44
4 | ABC-1 |  |  |  | 0.779 | 0.916 | 0.878 | 1.25 | 1.14 |  |  |  |  | 1.15 | 1 | 1.21 | 0.612 | 1.12
5 | BEN | 0.382 | 0.302 |  | 0.274 | 0.966 | 0.98 | 0.793 | 0.784 | 0.627 | 0.832 | 0.445 | 0.619 | 0.776 | 0.679 | 0.837 | 0.693 | 0.749
6 | CAL-12T | 0.375 | 0.345 | 0.228 | 0.847 | 1.07 | 1.21 | 1.4 | 1.33 | 1.16 | 1.15 | 1.52 | 1.17 |  |  |  |  | 
7 | COR-L23 | 0.571 | 0.744 | 0.632 | 0.688 | 0.706 | 0.693 | 0.687 | 0.78 | 0.195 | 0.198 | 0.186 | 0.181 | 0.423 | 0.427 | 0.438 | 0.333 | 0.355
8 | COR-L 105 | 0.738 |  |  | 0.935 | 0.936 |  | 1.11 | 0.839 | 0.939 |  | 1.2 | 1.05 | 0.55 | 0.736 | 0.706 | 0.683 | 0.569
9 | Calu-6 |  |  |  |  | 0.975 | 0.891 | 0.817 | 0.904 |  |  |  |  |  |  |  |  | 
10 | ChaGo-K-1 | 0.555 | 0.45 | 0.548 | 0.551 |  |  |  |  | 0.247 | 0.267 | 0.261 | 0.274 | 0.52 | 0.529 | 0.526 | 0.475 | 0.446
11 | EBC-1 |  |  |  |  | 0.835 | 0.833 | 0.805 | 0.834 |  |  |  |  |  |  |  |  | 
12 | EKVX | 0.884 |  | 0.921 | 0.842 | 0.821 |  | 0.904 | 0.777 | 0.379 |  | 0.405 | 0.442 | 0.313 | 0.17 | 0.389 | 0.312 | 0.283
13 | EMC-BAC-2 | 1.08 | 1.03 | 1.19 | 1.22 | 0.704 | 0.657 | 0.704 | 0.698 | 0.447 | 0.475 | 0.358 | 0.437 | 0.924 |  | 0.965 | 0.72 | 0.747
14 | EPLC-272H | 0.316 | 0.0941 | 0.494 | 0.228 | 0.927 | 0.676 | 0.942 | 0.889 | 0.319 | 0.336 | 0.396 | 0.328 | 0.337 | 0.374 | 0.388 | 0.297 | 0.284
15 | H3255 | 0.837 |  | 0.824 | 0.809 | 0.688 |  | 0.643 | 0.663 | 0.551 |  | 0.515 | 0.566 | 0.632 | 0.603 | 0.65 | 0.448 | 0.467
16 | HARA | 0.482 | 0.6 | 0.638 | 0.814 | 0.801 |  | 0.879 | 0.823 | 0.24 | 0.234 | 0.2 | 0.246 | 0.387 | 0.556 | 0.514 | 0.377 | 0.432
17 | HCC-15 | 0.203 | 0.484 | 0.16 | 0.315 | 0.864 | 0.892 | 0.874 | 0.881 | 0.227 | 0.226 | 0.209 | 0.222 | 0.642 | 0.531 | 0.622 | 0.504 | 0.383
18 | HCC-44 | 0.915 | 1.19 |  | 1.07 | 0.761 | 0.755 | 0.784 | 0.795 | 0.617 | 0.609 | 0.654 | 0.625 | 0.891 | 0.97 | 1.02 | 0.921 | 0.889
19 | HCC-78 |  |  |  |  | 0.351 | 0.249 | 0.663 | 0.361 | 0.925 | 0.922 | 0.932 | 0.921 | 0.705 | 0.67 | 0.657 | 0.562 | 0.533
20 | HCC-366 |  |  |  |  | 0.417 | 0.391 |  | 0.379 | 0.178 | 0.166 |  | 0.151 | 0.322 | 0.318 | 0.327 | 0.231 | 0.194
21 | HCC-827 | 0.654 |  | 0.537 | 0.669 | 0.959 |  | 1.01 | 0.9 | 0.273 |  | 0.287 | 0.238 | 0.33 | 0.346 | 0.347 | 0.302 | 0.254
22 | HOP-62 | 0.902 | 0.843 | 0.931 | 0.971 | 1.09 | 0.954 | 0.928 | 0.808 | 0.368 | 0.318 | 0.208 | 0.354 | 0.259 | 0.22 | 0.216 | 0.234 | 0.283
23 | IA-LM |  |  |  |  | 0.824 | 0.81 | 0.777 | 0.548 |  |  |  |  |  |  |  |  | 
24 | LC-2-ad | 0.887 | 0.978 |  | 1.05 | 0.831 | 0.557 | 0.867 | 0.877 | 0.252 | 0.254 | 0.249 | 0.276 | 0.823 | 0.767 | 0.83 | 0.735 | 0.768

— the supplement of paper PMC10307832
